Measurements from ChEMBL document CHEMBL1201862, “PubChem BioAssay data set” (2004).
Calls of active or inactive are those of the source.

Columns and labels:
[1] = molecular target: T1, Bcl-2-related protein A1 (Mus musculus, UniProt Q07440); test: Bfl-1 inhibitors, primary screen, biochemical, fluorescence polarization, FITC-Bid, mouse (AID 432)
T1 sequence (Q07440 whole entry): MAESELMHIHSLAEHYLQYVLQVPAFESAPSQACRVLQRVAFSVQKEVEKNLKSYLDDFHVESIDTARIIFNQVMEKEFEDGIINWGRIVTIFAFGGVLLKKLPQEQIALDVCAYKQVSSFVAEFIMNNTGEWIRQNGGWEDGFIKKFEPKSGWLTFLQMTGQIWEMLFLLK

[2] = molecular target: T1, Bcl-2-related protein A1; test: Bfl-1 inhibitors blocking BH3 peptide binding, confirmation, biochemical, TR-FRET, mouse Bfl-1 (AID 621);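 further: TR-FRET binding of GST-Bfl-1 to FITC-labelled Bid peptide via terbium antibody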
[3] = molecular target: T2, Streptokinase A (Streptococcus pyogenes serotype M1, UniProt P10520); test: S. pyogenes streptokinase expression inhibitors, potency, dose response, plasminogen activation absorbance, OD405 (AID 1914); type: functional, Streptococcus pyogenes M1 GAS;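 further: secreted streptokinase activity via plasminogen activation per viability signal from cell pellet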
T2 sequence (P10520 whole entry): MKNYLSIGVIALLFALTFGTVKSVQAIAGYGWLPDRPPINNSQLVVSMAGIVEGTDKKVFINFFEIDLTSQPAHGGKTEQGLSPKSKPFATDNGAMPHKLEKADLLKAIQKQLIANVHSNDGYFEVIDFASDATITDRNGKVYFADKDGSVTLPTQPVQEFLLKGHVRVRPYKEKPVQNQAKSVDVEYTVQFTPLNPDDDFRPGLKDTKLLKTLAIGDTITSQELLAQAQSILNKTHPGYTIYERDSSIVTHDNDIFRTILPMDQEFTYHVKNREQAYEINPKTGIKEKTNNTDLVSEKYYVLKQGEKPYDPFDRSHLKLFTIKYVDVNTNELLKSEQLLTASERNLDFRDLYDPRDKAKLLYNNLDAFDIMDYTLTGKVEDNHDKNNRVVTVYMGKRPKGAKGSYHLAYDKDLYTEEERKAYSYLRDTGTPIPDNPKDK

[4] = Luminescence Cell-Based Dose Retest to Confirm Inhibitors of Cancer Stem Cells. [Related pubchem assays (depositor defined):AID2717, AID2721]; type: functional; conditions: Homo sapiens
[5] = system: Streptococcus; test: Group A Streptococcus viability loss, dose response, counter-screen for streptokinase expression inhibitor project, luminescence, BacTiterGlo (AID 1915); type: functional, organism-based;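 further: potency for reduction of bacterial viability or growth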
[6] = inhibitors of Bluetongue virus cytopathic effect, confirmation, arbovirus, BSR cells (AID 1250); type: functional;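 further: protection from viral cytopathic effect measured as cell viability by ATP luminescence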
[7] = system: Streptococcus sp. 'group A'; test: growth inhibition of control SK(-) GAS strain, dose response, counter-screen for streptokinase expression inhibitor project, luminescence, kanamycin, BacTiterGlo, confirmation (AID 1900); type: functional, organism-based
[8] = molecular target: Cytochrome P450 2C19 (Homo sapiens, UniProt P33261); test: Cytochrome panel assay with activity outcomes. Panel member name: p450-cyp2c19 Compounds with AC50 equal or less than 10 uM are considered active; type: functional; conditions: read-out: AC50
Sequence of Cytochrome P450 2C19 (P33261 whole entry): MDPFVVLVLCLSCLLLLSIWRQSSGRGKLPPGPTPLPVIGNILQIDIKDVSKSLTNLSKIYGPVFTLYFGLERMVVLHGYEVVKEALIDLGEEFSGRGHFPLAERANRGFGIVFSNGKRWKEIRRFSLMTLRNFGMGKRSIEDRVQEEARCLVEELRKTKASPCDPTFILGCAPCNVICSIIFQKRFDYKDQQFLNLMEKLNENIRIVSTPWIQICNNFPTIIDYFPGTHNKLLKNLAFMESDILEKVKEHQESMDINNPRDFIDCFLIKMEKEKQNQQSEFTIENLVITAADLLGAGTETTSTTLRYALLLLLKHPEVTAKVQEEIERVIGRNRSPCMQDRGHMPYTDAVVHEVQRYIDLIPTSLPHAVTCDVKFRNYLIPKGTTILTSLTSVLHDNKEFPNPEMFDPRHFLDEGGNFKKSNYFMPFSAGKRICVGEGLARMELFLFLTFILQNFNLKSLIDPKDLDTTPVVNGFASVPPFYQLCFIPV

[9] = molecular target: Cytochrome P450 2C9 (Homo sapiens, UniProt P11712)
Sequence of Cytochrome P450 2C9 (P11712 whole entry): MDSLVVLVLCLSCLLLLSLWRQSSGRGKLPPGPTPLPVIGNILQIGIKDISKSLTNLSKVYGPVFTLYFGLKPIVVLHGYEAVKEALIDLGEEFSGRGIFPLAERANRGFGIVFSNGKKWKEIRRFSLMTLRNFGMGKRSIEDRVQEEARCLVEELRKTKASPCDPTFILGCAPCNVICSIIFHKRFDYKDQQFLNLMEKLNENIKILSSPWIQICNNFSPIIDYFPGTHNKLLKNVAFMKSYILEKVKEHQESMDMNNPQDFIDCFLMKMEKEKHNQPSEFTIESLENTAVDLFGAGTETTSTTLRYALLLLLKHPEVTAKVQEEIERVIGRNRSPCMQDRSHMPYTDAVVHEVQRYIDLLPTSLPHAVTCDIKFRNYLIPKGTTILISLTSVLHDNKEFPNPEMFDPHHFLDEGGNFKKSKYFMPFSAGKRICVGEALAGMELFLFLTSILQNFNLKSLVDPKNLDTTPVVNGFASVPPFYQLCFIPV

[10] = molecular target: Prothrombin (Homo sapiens, UniProt P00734); test: Thrombin 1536 HTS Dose Response Confirmation. [Related pubchem assays: 1046 (Thrombin 1536 HTS; hits were confirmed in this assay)]; type: functional
[11] = molecular target: T3, Protein RecA (Mycobacterium tuberculosis, UniProt P9WHJ3); test: Fluorescence Cell-Free Homogeneous Dose Retest to Identify Inhibitors of RecA-Intein Splicing Activity. [Related pubchem assays (depositor defined):AID2097, AID2223, AID489010, AID492950]; type: functional
T3 sequence (P9WHJ3 whole entry): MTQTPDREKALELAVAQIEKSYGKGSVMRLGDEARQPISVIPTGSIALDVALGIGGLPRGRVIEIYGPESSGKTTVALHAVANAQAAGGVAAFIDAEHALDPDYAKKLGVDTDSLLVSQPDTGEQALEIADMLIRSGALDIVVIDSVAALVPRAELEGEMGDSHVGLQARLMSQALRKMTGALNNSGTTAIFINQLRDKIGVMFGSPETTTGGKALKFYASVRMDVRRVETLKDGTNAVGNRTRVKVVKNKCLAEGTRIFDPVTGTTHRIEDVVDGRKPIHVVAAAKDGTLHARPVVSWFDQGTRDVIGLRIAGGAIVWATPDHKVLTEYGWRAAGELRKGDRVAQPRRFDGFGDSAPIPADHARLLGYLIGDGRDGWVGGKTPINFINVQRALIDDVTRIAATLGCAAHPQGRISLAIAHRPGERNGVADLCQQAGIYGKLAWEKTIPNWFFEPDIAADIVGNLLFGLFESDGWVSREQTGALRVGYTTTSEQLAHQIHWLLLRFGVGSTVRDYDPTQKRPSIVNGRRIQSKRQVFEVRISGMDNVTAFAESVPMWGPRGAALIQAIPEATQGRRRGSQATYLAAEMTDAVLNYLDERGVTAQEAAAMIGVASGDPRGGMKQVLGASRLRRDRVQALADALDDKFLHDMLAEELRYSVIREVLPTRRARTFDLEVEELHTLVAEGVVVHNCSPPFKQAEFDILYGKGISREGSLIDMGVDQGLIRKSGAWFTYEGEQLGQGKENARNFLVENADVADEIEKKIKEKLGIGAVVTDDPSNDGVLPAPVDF

[12] = molecular target: T4, Replicative DNA helicase DnaB (Mycobacterium tuberculosis, UniProt P9WMR3); test: DnaB intein splicing inhibitors, dose response, biochemical, cell-free fluorescence (AID 449749); type: functional
T4 sequence (P9WMR3 whole entry): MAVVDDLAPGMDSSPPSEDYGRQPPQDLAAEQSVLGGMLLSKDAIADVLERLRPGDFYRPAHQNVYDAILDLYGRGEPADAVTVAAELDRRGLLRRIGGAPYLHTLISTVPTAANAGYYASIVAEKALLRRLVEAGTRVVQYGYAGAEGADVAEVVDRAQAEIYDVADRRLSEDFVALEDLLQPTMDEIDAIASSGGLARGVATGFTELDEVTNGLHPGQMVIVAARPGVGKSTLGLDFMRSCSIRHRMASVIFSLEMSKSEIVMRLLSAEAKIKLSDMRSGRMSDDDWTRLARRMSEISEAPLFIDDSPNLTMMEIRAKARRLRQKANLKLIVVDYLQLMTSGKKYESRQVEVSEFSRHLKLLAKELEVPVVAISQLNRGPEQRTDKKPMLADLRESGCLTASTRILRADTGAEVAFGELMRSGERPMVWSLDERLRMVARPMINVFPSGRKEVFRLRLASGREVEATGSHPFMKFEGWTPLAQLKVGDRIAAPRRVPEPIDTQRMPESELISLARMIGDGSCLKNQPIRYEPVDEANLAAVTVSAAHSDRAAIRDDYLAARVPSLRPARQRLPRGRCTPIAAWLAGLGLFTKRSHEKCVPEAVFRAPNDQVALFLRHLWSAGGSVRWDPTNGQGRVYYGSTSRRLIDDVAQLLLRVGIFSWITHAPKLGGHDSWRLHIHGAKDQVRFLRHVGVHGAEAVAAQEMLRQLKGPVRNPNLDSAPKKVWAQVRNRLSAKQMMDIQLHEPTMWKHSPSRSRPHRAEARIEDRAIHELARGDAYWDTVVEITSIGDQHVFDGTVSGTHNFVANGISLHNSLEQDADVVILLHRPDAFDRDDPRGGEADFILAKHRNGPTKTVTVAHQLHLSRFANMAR

[13] = cytotoxicity toward DRD oncogenic fibroblasts, dose response, cell-based, non-viral oncogenic, luminescence (AID 1934); type: functional; conditions: Homo sapiens
[14] = system: BJ; test: cytotoxicity toward BJ-TERT fibroblasts, dose response, cell-based, RAS-independent, luminescence (AID 1933); type: functional; conditions: Homo sapiens
[15] = cytotoxicity in MIN6 insulinoma cells, dose response, cytotoxicity control, cell-based, mouse insulinoma (AID 2122); type: functional;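 further: confirmatory high-throughput counterscreen run to flag cytotoxic compounds; mouse MIN-6 beta cells carrying an insulin promoter eGFP reporter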
[16] = system: BJ; test: cytotoxicity toward BJ-TERT-LT-ST fibroblasts, dose response, cell-based, RAS-independent, luminescence (AID 1935); type: functional; conditions: Homo sapiens;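 further: BJ fibroblasts immortalized with TERT plus LT and ST oncogenes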
[17] = system: INS1; test: beta cell apoptosis inhibitors, cytokine rescue, dose response, luminescence, retest (AID 449756); type: functional, cell-based; conditions: Rattus norvegicus;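 further: cell death triggered by IL-1 beta plus TNF-alpha plus IFN-gamma mixture; protective hits raise ATP signal compared with cytokine alone wells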
[18] = system: BJ; test: cells; type: functional, cell-based; conditions: Homo sapiens
[19] = system: BJ; test: cytotoxicity toward Ras-transformed BJeLR fibroblasts, dose response, cell-based, alamar blue fluorescence, cherrypicked samples (AID 2631); type: functional; conditions: Homo sapiens;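 further: confirmatory dose-response assay in RAS-dependent BJ fibroblasts engineered with TERT, LT and ST, with cytotoxicity read by fluorescence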
[20] = molecular target: Paired box protein Pax-8 (Homo sapiens, UniProt Q06710); test: inhibitors of PAX8-driven TPO luciferase reporter, dose response, RMG-I cells, cherry-pick (AID 687027); type: functional, cell-based;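 further: luciferase reporter driven by Pax8 target thyroperoxidase promoter measured by SteadyGlo luminescence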
Sequence of Paired box protein Pax-8 (Q06710 whole entry): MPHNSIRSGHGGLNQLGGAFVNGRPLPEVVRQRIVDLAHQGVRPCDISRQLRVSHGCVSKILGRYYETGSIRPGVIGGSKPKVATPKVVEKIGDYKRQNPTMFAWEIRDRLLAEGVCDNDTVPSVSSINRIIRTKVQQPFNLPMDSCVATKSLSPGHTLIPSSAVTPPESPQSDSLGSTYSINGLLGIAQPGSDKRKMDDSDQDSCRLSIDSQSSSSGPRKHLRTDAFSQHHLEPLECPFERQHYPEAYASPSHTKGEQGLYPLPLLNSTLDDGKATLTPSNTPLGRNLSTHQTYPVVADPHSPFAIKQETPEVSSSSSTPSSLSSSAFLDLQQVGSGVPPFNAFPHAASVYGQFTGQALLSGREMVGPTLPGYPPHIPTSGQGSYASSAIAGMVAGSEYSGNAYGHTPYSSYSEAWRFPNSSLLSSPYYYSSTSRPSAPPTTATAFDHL

[21] = Luminescence-based dose response cell-based high throughput screening assay for cytotoxic compounds using the IEC-6 intestinal epithelial cell line. [Related pubchem assays: 1858 (Summary AID.), 1825 (Counterscreen.), 1907 (Confirmation screen.)]; type: functional
[22] = insulin promoter down-regulators in MIN6 cells, imaging, high-content screening, mouse beta cells (AID 1628); type: functional
[23] = molecular target: Luciferin 4-monooxygenase (Photinus pyralis, UniProt P08659); test: Counter Screen for Luciferase-based Assay Positives. [Related pubchem assays: 620, 618, 411 ]
Sequence of Luciferin 4-monooxygenase (P08659 whole entry): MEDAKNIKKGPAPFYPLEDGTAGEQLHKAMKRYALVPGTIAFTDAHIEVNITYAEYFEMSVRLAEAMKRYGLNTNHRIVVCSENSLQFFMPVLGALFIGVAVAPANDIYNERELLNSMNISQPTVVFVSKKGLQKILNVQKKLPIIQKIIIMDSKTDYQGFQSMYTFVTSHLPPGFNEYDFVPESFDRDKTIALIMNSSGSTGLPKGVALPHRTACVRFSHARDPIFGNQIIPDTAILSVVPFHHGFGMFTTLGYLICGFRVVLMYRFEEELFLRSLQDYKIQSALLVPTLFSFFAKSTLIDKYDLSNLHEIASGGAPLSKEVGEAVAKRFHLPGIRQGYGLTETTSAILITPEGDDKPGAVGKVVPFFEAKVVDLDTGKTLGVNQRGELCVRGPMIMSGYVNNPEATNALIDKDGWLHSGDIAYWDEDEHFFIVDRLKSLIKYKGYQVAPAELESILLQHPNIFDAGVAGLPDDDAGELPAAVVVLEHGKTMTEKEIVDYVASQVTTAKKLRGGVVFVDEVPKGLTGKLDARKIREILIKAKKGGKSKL

[24] = system: HT-1080; test: cytotoxicity in HT1080 fibrosarcoma cells, cell-based, fluorescence readout (AID 620); type: functional; conditions: Homo sapiens
[25] = molecular target: 14-3-3 protein gamma (Homo sapiens, UniProt P61981); test: modulators of 14-3-3 gamma client binding – dose response (AID 711); type: functional
Sequence of 14-3-3 protein gamma (P61981 whole entry): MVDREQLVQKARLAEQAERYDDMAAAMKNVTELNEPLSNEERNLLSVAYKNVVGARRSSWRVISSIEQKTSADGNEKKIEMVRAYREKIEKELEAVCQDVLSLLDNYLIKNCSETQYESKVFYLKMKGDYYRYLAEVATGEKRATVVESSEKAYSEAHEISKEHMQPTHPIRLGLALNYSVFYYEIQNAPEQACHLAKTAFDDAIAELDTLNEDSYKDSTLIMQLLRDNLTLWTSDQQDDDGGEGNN

[26] = molecular target: Protein-tyrosine kinase 2-beta (Homo sapiens, UniProt Q14289);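 further: potency of inhibitors of PYK2 kinase phosphorylation of poly-GT substrate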
Sequence of Protein-tyrosine kinase 2-beta (Q14289 whole entry): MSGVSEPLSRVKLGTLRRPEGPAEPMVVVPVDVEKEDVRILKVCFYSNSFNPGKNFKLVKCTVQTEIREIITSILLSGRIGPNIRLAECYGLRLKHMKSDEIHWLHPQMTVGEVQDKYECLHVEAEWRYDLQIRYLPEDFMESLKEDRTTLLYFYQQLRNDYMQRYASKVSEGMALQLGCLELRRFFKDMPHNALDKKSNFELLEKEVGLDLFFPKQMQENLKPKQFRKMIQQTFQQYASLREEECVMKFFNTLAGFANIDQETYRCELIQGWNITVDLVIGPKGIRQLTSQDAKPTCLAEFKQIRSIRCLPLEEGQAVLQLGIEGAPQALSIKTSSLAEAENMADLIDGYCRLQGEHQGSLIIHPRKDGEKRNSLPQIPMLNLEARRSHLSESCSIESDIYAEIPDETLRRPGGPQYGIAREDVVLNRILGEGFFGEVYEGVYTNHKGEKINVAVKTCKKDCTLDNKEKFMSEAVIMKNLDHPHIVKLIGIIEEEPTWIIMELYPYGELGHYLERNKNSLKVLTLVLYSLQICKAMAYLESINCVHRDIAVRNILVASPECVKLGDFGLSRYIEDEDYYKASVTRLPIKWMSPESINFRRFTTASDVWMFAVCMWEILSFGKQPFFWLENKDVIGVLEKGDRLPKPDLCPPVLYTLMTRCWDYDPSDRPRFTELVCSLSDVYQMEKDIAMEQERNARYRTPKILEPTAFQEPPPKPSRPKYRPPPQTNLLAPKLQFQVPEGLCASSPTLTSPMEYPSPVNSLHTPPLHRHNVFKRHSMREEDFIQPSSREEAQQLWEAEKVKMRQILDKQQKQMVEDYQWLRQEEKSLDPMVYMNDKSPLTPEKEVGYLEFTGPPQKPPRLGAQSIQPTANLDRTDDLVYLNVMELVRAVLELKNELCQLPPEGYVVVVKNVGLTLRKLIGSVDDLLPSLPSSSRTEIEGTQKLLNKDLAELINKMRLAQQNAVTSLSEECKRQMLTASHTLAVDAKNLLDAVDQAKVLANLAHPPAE

With Cc1cc(C)c2c3c(c(-c4ccccc4)n2n1)c(=O)n(C)c(=O)n3C the IC50 [1] was > 100 µM (not active) and the IC50 [2] was > 100 µM (not active).

With Cc1ccc(-c2csc3ncnc(NS(=O)(=O)c4ccc(Cl)cc4)c23)cc1 the EC50 [3] was 16.2 µM (active), the AC50 [4] was 9.42 µM (active) and the EC50 [5] was 66.7 µM (active). The IC50 [6] was 35.5 µM (active) and the EC50 [7] was 4.44 µM (active).

For CCOC(=O)CSc1n[nH]c(NC(=O)c2cccc(C(F)(F)F)c2)n1, the AC50 [8] was 2.51 µM (inconclusive), the AC50 [9] was 5.01 µM (inconclusive) and the IC50 [10] was 0.515 µM (active). The EC50 [11] was 12.4 µM (active) and the AC50 [12] was 11.3 µM (active).

In the case of CCOc1ccc(C(=O)c2cc([N+](=O)[O-])ccc2N2CCOCC2)cc1, the EC50 [13] is reported as 0.358 µM (active), the EC50 [14] is reported as 0.406 µM (active) and the IC50 [15] is reported as < 0.25 µM (active). The EC50 [16] was 0.401 µM (inconclusive), the AC50 [17] was 0.775 µM (active) and the EC50 [18] was 0.632 µM (active). The EC50 [19] was < 0.104 µM (active), the AC50 [20] was < 0.26 µM (active) and the IC50 [21] was 0.0558 µM (active). For the same compound, the IC50 [22] was 0.263 µM (active).

In the case of Cc1ccc(-c2nc3cc(N)ccc3o2)cc1, the EC50 [23] is reported as 4.68 µM (active) and the EC50 [24] is reported as > 50 µM (not active).

For CN1C(=O)C(Cc2c[nH]c3ccccc23)C(=O)N(C)C1=O, the IC50 [25] was > 50 µM (not active).

In the case of O=C(Oc1ccccc1)c1c(Cl)cccc1P(=O)(O)O, the IC50 [26] is reported as 6.43 µM (active).
